Several values for one entry are separate records, joined by “and”; a condition that tells them apart may be missing. Identical values can stand only once.
Assays:
[1] = system: IL-2; assay: Oral administration in powdered sucrose, IL-2 content (Example 13); assay type: in vivo, mice; conditions: for IL-2 content: oral, 24 hours
Description: The compound of Example 1 was thoroughly mixed with powdered sucrose and 10 μg of the compound of example 1 in 25 mg of powdered sucrose was placed in the mouth of each mouse.
After 24 hours the mice were sacrificed and the spleens were processed as described above.

[2] = system: IL-2; assay: IL-2 activity of supernatants of human mononuclear cells on CTLD cells (Example 8); assay type: cell-based; conditions: 72 hours
[3] = system: experimentally induced tumor; assay: In vivo effect on methylcholanthrene (MCA) induced tumor (Example 5); parameters: species or system C3 Heb mice; conditions: 10 μg IP
Description: A solution of 0.2% of methylcholanthrene (MCA, Sigma, USA) was prepared by dissolving 2 mg of the carcinogen in 1.0 ml of olive oil (Ref: Petra, et al., Cancer 19:302, 1961) with continuous shaking at 37° C. for 30 minutes. Six to eight week old C3 Heb mice were injected with 0.6 mg MCA/0.3 ml of solvent/mouse subcutaneously in the rear right thigh. After 21-30 days the induced tumor was surgically removed and pushed through 60 mesh stainless nets to obtain isolated cells. These cells were then further injected subcuteneously into the rear right thigh of C3 Heb mice 5 to 8 weeks of age, at a concentration of 10^6 cells/0.3 ml PBS/mouse/hypodermic needle 25 gauge, 5/8" to further induce tumor formation.
Five days after injection of the tumor cells, a palpable tumor was induced. The animals were thereafter treated as follows:
(a) control (0.2 ml 40% DMSO 60% PBS, IP 1 day after the induced tumor was palpable)
(b) 10 μg of compound of Example 1, IP to 5 mice (in 0.2 ml 40% DMSO 60% PBS, 3 days after the induced tumor was palpable and a second injection of 10 μg of compound in the same solvent was administered 5 days after the first injection to 3 of the 5 mice.
All animals expired 35 to 38 days after the initial innoculation.

[4] = system: IL-2; assay: IL-2 production by human mononuclear cells of normal donors and SLE patients (Example 20); assay type: cell-based
Description: Using the procedure of Example 4, human mononuclear cells were tested for their ability to produce IL-2 after induction with PHA or in unstimulated cells from normal donors and from patients suffering from systemic lupus erthyrematous. The IL-2 content was tested according to the procedure of Example 3 using the CTLD IL-2 dependent cell line.

[5] = Preliminary toxicity (LD50) in mice; assay type: in vivo; conditions: 6 week old mice
[6] = system: IL-2; assay: Oral administration in drinking water, IL-2 content of spleen cell supernatants (Example 13); assay type: in vivo, male Balb-C mice; conditions: 1 μg/ml H2O, 4 days
Description: The water solution was prepared by dissolving the compounds in PBS at a concentration of 50 μg/ml PBS and diluting the resulting solution to the desired concentration. The compounds were administered over a 4 day period. The exact amount of liquid intake was recorded daily. […] The cells were incubated at a concentration of 10^7 cells/ml in enriched RPMI containing 2 μg/ml of con-A for 24 hours at 37° C. The supernatants were collected and tested for IL-2 content.

## Cl[TeH]1(Cl)(Cl)OCCO1 [Example 1]
[1]; Test 1, 10 μg in 25 mg sucrose
  IL-2 content: 250,175 cpm and 166,475 cpm
[1]; Test 2, 10 μg in 25 mg sucrose
  IL-2 content: 55,382 cpm and 41,938 cpm and 29,172 cpm
[1]; given in dry form or hydrolyzed in an aqueous diluent
  induction of lymphokine production: active
[2]; 1 ng
  IL-2 activity: 11,000 Counts per minute
[2]; 10 ng
  IL-2 activity: 1,500 Counts per minute
[2]; 1 μg
  IL-2 activity: 250 Counts per minute
[2]; 100 μg
  IL-2 activity: 280 Counts per minute
[3]; day 3, individual mouse
  Vol. of Tumor (13 days): 0.77 and 1.66
[3]; day 3 and 5, individual mouse
  Vol. of Tumor (13 days): 0.7 and 0.52 and 0.31
[4]; SLE, PHA +, 5 μg 0.2 ml PBS
  IL-2 production: 6.3 CPM × 10^-3 and 8.2 CPM × 10^-3 and 4.1 CPM × 10^-3
[4]; SLE, PHA +, 1:50 PBS
  IL-2 production: 24.2 CPM × 10^-3 and 28.1 CPM × 10^-3 and 23.8 CPM × 10^-3
[4]; SLE, PHA +, 1:100 PBS
  IL-2 production: 19.7 CPM × 10^-3 and 24.0 CPM × 10^-3 and 20.2 CPM × 10^-3
[4]; SLE, PHA +, 1:200 PBS
  IL-2 production: 15.4 CPM × 10^-3 and 18.6 CPM × 10^-3 and 16.8 CPM × 10^-3
[4]; SLE, PHA -, 5 μg 0.2 ml PBS
  IL-2 production: 2.0 CPM × 10^-3 and 2.4 CPM × 10^-3
[4]; SLE, PHA -, 1:100 PBS
  IL-2 production: 32.1 CPM × 10^-3 and 35.1 CPM × 10^-3 and 18.1 CPM × 10^-3
[4]; normal, PHA +, 5 μg 0.2 ml PBS
  IL-2 production: 36.4 CPM × 10^-3 and 30.4 CPM × 10^-3 and 38.9 CPM × 10^-3
[4]; normal, PHA +, 1:50 PBS
  IL-2 production: 48.2 CPM × 10^-3 and 38.9 CPM × 10^-3 and 53.5 CPM × 10^-3
[4]; normal, PHA +, 1:100 PBS
  IL-2 production: 46.2 CPM × 10^-3 and 54.2 CPM × 10^-3 and 44.8 CPM × 10^-3
[4]; normal, PHA +, 1:200 PBS
  IL-2 production: 38.6 CPM × 10^-3 and 49.8 CPM × 10^-3 and 38.3 CPM × 10^-3
[4]; normal, PHA -, 5 μg 0.2 ml PBS
  IL-2 production: 2.3 CPM × 10^-3 and 2.1 CPM × 10^-3
[4]; normal, PHA -, 1:50 PBS
  IL-2 production: 43.6 CPM × 10^-3 and 52.2 CPM × 10^-3 and 50.8 CPM × 10^-3
[4]; normal, PHA -, 1:100 PBS
  IL-2 production: 38.4 CPM × 10^-3 and 50.3 CPM × 10^-3 and 46.1 CPM × 10^-3
[4]; normal, PHA -, 1:200 PBS
  IL-2 production: 30.1 CPM × 10^-3 and 47.1 CPM × 10^-3 and 31.3 CPM × 10^-3
[5]
  LD50: 300 μg./25 g of body weight
[6]
  IL-2 content: 49179 cpm
  Percent increase as compared to control: +50%
